Where two headings read alike, the source gives them in different places.
Key:
human Fpn = biological target: T1, human Fpn (Homo sapiens, UniProt Q9NP59); test: 55Fe efflux from HEK293T cells with tet-inducible human Fpn; format: cell-based
T1 construct: expressed in transfected cells; host or cells: Xenopus laevis oocytes injected with Fpn RNA
T1 sequence (Q9NP59 1-571): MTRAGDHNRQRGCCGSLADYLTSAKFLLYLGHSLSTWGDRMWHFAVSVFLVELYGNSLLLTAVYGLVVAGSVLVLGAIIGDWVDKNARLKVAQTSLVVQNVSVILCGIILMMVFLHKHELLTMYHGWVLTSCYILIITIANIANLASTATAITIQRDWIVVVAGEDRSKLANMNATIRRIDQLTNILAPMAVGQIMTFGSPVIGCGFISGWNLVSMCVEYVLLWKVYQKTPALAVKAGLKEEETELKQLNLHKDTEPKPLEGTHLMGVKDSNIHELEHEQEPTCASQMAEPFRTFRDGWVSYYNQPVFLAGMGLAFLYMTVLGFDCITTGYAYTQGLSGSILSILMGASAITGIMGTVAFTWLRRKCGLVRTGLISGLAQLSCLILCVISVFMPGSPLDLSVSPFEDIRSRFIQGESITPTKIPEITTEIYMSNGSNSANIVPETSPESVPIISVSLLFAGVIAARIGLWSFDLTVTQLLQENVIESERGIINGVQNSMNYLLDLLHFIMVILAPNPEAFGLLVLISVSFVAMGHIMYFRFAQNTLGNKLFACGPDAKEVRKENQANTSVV
Procedure: We measured ^55Fe efflux from HEK293 cells (E. Nemeth, UCLA) that were stably transfected with a tet-inducible human Fpn construct in pcDNA5/FRT/TO vector (Invitrogen) as described. Fpn expression was induced by adding 0.5 µg/ml doxycycline; data represent % efflux in induced minus uninduced cells. Fpn expression in mammalian cells was confirmed by visualizing GFP fluorescence, which was unaffected by removal of extracellular calcium.

wild type BbFpn = wild type BbFpn (Bdellovibrio bacteriovorus, UniProt Q6MLJ0); test: biochemical; format: binding, Bdellovibrio bacteriovorous
Chain of wild type BbFpn (Q6MLJ0 whole entry): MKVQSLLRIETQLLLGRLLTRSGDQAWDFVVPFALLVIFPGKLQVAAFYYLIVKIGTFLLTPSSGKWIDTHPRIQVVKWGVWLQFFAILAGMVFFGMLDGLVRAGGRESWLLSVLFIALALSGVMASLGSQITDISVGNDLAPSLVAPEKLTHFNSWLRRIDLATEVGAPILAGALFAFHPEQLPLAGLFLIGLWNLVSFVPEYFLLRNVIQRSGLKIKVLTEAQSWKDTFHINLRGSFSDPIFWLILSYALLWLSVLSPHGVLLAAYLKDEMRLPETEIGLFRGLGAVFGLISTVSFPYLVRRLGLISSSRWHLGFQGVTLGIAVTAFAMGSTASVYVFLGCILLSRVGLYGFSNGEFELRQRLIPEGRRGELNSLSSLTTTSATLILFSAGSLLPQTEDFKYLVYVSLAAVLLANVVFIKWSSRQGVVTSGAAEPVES

[1] = Supplementary Figs. 5 and 9, one experiment

`[Ca+2]` [Ca^2+, calcium] was tested, and the “Effect of extracellular Ca2+ on 55Fe efflux” value (human Fpn; HEK293T cells, 1 mM Ca2+, over 6 h (P = 0.002) and 24 h (P < 0.001), not at earlier time points) was “significantly activated”, the “Effect of removal of extracellular Ca2+ on Fpn-mediated 55Fe efflux” value (human Fpn; HEK cells, 0 Ca2+ + 1 mM EGTA vs 1 mM Ca2+) was “abolished” and the Kd (wild type BbFpn; 20 °C, 20 mM Tris pH 8, 50 mM NaCl, 0.004% LMNG, read-out: Kd (ITC)) was 1.2e-05 ± 4e-07 M. For the same compound, the “-TΔS, ITC” value (wild type BbFpn; [1]) was -15.3 kcal/mol, the “N (sites), ITC” value (wild type BbFpn; [1]) was 0.691 ± 8.5e-3 and the “ΔG, ITC” value (wild type BbFpn; [1]) was -6.61 kcal/mol. For the same compound, the “ΔH, ITC” value (wild type BbFpn; [1]) was 8.68 ± 0.155 kcal/mol and the Kd (wild type BbFpn; Supplementary Figs. 5 and 9, one experiment, read-out: KD (M), ITC) was 1.18e-05 M.

Reference: PMC6079014, “Calcium is an essential cofactor for metal efflux by the ferroportin transporter family” (Nature Communications, 2018)
